Source: ChEMBL document CHEMBL1201862, “PubChem BioAssay data set” (2004)
Calls of active or inactive are those of the source.

Tests used:
Mu-type opioid receptor = Mu-type opioid receptor (Homo sapiens, UniProt P35372); assay: Counterscreen for agonists of heterodimerization of the mu 1 (OPRM1) and delta 1 (OPRD1) opioid receptors: Luminescence-based cell-based high throughput dose response assay to identify agonists of OPRM1 homodimerization.; assay type: functional;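 further: U2OS cells expressing OPRM1 and beta-arrestin as split beta-galactosidase partners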
[1] = biological target: Serine/threonine-protein phosphatase (Homo sapiens, UniProt Q9BPW0); assay: inhibition of protein phosphatase 5 activity – biochemical, fluorescence, dose response (AID 2395)
[2] = biological target: T1, Sentrin-specific protease 8 (Homo sapiens, UniProt Q96LD8); assay type: functional;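 further: luminescence read-out of SENP8 inhibition, dose-response confirmation following an ultra-high-throughput screen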
T1 sequence (Q96LD8 whole entry): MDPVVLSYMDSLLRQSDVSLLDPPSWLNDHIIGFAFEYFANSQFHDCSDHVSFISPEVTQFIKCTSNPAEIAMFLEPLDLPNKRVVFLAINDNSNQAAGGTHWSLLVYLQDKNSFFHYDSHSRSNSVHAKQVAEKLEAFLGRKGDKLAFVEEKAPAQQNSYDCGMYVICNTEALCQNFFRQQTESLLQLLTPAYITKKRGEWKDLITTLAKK

Cysteine protease ATG4B = biological target: T2, Cysteine protease ATG4B (Homo sapiens, UniProt Q9Y4P1); assay type: functional;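 further: Fluorescence-based dose-response confirmation assay measuring inhibition of ATG4B activity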
T2 sequence (Q9Y4P1 whole entry): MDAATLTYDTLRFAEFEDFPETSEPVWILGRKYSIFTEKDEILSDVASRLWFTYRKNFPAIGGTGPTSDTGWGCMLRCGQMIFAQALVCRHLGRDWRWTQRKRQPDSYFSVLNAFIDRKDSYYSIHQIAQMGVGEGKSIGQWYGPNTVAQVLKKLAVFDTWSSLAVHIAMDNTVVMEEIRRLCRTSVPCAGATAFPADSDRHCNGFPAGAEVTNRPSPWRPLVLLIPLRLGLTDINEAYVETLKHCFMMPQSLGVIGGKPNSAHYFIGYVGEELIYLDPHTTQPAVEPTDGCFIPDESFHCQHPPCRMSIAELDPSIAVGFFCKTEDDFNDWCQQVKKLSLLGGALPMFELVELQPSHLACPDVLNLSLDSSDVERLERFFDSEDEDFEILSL

Mu-type opioid receptor, sequence (P35372 whole entry): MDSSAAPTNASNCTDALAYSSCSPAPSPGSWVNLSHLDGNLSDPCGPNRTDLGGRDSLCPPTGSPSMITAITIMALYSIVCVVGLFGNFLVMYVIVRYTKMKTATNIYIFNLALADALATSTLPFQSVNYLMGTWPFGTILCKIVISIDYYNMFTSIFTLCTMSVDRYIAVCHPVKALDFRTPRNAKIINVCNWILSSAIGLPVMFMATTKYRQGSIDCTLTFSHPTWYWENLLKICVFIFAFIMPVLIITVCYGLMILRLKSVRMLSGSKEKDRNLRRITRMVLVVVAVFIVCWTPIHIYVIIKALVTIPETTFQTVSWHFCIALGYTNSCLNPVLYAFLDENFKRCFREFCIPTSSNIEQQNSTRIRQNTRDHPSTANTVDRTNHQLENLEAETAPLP
Serine/threonine-protein phosphatase, sequence (Q9BPW0 whole entry): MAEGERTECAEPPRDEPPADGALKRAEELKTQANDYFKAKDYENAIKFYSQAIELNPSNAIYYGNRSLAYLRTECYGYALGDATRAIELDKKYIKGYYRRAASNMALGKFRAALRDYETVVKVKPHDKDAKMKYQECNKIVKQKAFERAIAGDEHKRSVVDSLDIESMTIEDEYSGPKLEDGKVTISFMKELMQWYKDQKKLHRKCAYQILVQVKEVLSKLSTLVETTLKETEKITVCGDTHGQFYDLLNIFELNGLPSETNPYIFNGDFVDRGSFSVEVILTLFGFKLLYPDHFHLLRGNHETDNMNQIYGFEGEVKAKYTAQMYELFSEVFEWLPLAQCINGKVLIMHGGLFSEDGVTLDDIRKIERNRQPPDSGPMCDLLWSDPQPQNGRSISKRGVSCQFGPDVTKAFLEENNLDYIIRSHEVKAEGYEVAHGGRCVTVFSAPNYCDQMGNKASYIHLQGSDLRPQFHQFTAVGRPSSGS

Structure (SMILES)	EC50 (Mu-type opioid receptor)	IC50 [1]	IC50 [2]	IC50 (Cysteine protease ATG4B)
CCCCCCCCCCOC(=O)C[n+]1c(COc2ccccc2C)n(C)c2ccccc21	> 92.5 µM (inactive)	–	–	–
Oc1nc(Nc2ccccc2)cc2ccccc12	–	31.6 µM (not active)	899 nM (active)	9.22 µM (active)
